According to ChEMBL document CHEMBL1201862, “PubChem BioAssay data set” (2004):
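Five concentrations, 48 hours, 96-well plates. GI50 marks 50% less growth.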 The source made the active and inactive calls. Cut-off read from the data, not from the text of the source: active = GI50 up to about 1.1 µM and inactive = higher.

Legend:
Assay in all cases: NCI-60 cell line screen, 48 h
EKVX = test system: EKVX
MOLT-4 = test system: MOLT-4
A549 = test system: A549
HT-29 = test system: HT-29
A498 = test system: A498
U-251 = test system: U-251
CCRF-CEM = test system: CCRF-CEM
NCI-H460 = test system: NCI-H460
MCF7 = test system: MCF7
SK-OV-3 = test system: SK-OV-3
SNB-75 = test system: SNB-75
RPMI-8226 = test system: RPMI-8226
KM12 = test system: KM12
SN12C = test system: SN12C
HL-60 = test system: HL-60
COLO 205 = test system: COLO 205
SR = test system: SR
BT-549 = test system: BT-549
K562 = test system: K562

Compound	GI50 (EKVX)	GI50 (MOLT-4)	GI50 (A549)	GI50 (HT-29)	GI50 (A498)	GI50 (U-251)	GI50 (CCRF-CEM)	GI50 (NCI-H460)	GI50 (MCF7)	GI50 (SK-OV-3)	GI50 (SNB-75)	GI50 (RPMI-8226)	GI50 (KM12)	GI50 (SN12C)	GI50 (HL-60)	GI50 (COLO 205)	GI50 (SR)	GI50 (BT-549)	GI50 (K562)
COC(=O)[C@@H]1Cc2cc(O)c(O)cc2C2(CCN(C)CC2)O1	> 10 µM (inactive)	> 10 µM (inactive)	> 10 µM (inactive)	> 10 µM (inactive)	> 10 µM (inactive)	> 10 µM (inactive)	> 10 µM (inactive)	> 10 µM (inactive)	> 10 µM (inactive)	> 10 µM (inactive)	> 10 µM (inactive)	> 10 µM (inactive)	> 10 µM (inactive)	> 10 µM (inactive)	> 10 µM (inactive)	> 10 µM (inactive)	> 10 µM (inactive)	> 10 µM (inactive)	
CN(C)c1ccc(/C=C(\NC(=O)c2ccccc2)C2NC(Cc3c[nH]c4ccccc34)C(=O)O2)cc1 (stereo not drawn)	8.99 µM (inactive)	16.6 µM (inactive)	5.16 µM (inactive)	3.25 µM (inactive)	> 93.1 µM (inactive)	4.49 µM (inactive)	8.91 µM (inactive)	3.19 µM (inactive)	6.65 µM (inactive)	> 59.4 µM (inactive)	39.4 µM (inactive)	6.71 µM (inactive)	6.71 µM (inactive)	> 28.5 µM (inactive)	6.65 µM (inactive)	4.06 µM (inactive)	41.8 µM (inactive)	12.1 µM (inactive)	10.9 µM (inactive)
CN1CCN(C2=CC(=O)c3c(O)ccc(O)c3C2=O)CC1	1.86 µM (inactive)	1.01 µM (active)	1.79 µM (inactive)	0.302 µM (active)	1.54 µM (inactive)	1.61 µM (inactive)	0.501 µM (active)	1.9 µM (inactive)	0.319 µM (active)	5.02 µM (inactive)	1.61 µM (inactive)	1.37 µM (inactive)	2.07 µM (inactive)	1.64 µM (inactive)	0.298 µM (active)	0.166 µM (active)	1.38 µM (inactive)	1.76 µM (inactive)	0.347 µM (active)
O=c1cc(CBr)c2ccc(O)cc2o1	21.7 µM (inactive)	60 µM (inactive)	92.5 µM (inactive)	54.5 µM (inactive)	25.8 µM (inactive)	53.3 µM (inactive)	54.3 µM (inactive)	63.5 µM (inactive)	69.7 µM (inactive)	97.7 µM (inactive)	> 100 µM (inactive)	38.5 µM (inactive)	54.1 µM (inactive)	88.7 µM (inactive)	48.3 µM (inactive)	> 100 µM (inactive)	63 µM (inactive)	35.1 µM (inactive)	69.8 µM (inactive)
C[C@@H]1CC[C@H]2[C@H](C)C(OC3O[C@@H]4O[C@@]5(C)CC[C@H]6[C@H](C)CC[C@@H]([C@@H]3C)[C@@]46O5)O[C@@H]3O[C@@]4(C)CC[C@@H]1[C@]32O4 (stereo partly drawn)	> 100 µM (inactive)	> 100 µM (inactive)	> 100 µM (inactive)	> 100 µM (inactive)	> 100 µM (inactive)	> 100 µM (inactive)	> 100 µM (inactive)	> 100 µM (inactive)	> 100 µM (inactive)	> 100 µM (inactive)	> 100 µM (inactive)	> 100 µM (inactive)	> 100 µM (inactive)	> 100 µM (inactive)	> 100 µM (inactive)	> 100 µM (inactive)	> 100 µM (inactive)	> 100 µM (inactive)	> 100 µM (inactive)
O=C(N/N=C\c1cccs1)c1ccncc1	> 100 µM (inactive)	> 100 µM (inactive)	> 100 µM (inactive)	> 100 µM (inactive)	> 100 µM (inactive)	> 100 µM (inactive)	> 100 µM (inactive)	> 100 µM (inactive)	> 100 µM (inactive)	> 100 µM (inactive)	> 100 µM (inactive)	> 100 µM (inactive)	> 100 µM (inactive)	> 100 µM (inactive)	> 100 µM (inactive)	> 100 µM (inactive)	> 100 µM (inactive)	> 100 µM (inactive)	> 100 µM (inactive)
